This is an account of results in PMC3665789 (PLoS ONE, 2013).

For data set [1], the system named is HIV-1 ID12 (clinical isolate; R5). The settings on record: PBMCs; ID12, group M subtype A/E; p24 Ag ELISA. Background: An ELISA detects its analyte on a solid surface through an enzyme-linked reagent.
In another data set the test system is Lactobacillus strains. The experiment in a line: Vaginal Lactobacillus growth assay. To be noted: dose up to 120 µM; 24 h, OD600. It is filed as cell-based. The method, then: Lactobacillus strains grown overnight to stationary phase (OD600 nm ∼1.8–2.0) were used as inocula for the assay. The assay was performed in 96-well microtiter plates. Sterile wells were filled with 200 µl MRS (de Man – Rogosa – Sharpe) medium (BD Biosciences). About 0.5×10^7 colony forming units or CFUs (1/100 of an overnight culture) were added and then 5-fold dilution series of different concentrations of the used compounds were administered. The plates were incubated without shaking for 24 h at 37°C. The OD600 nm was measured after 24 h and as a negative control, each strain was grown in medium without compound (Petrova et al., in preparation).

Data set [2] in a line: Cytotoxicity assay (MTS/PES). It is filed as cell-based, human. The settings on record: HEL cells, 3 days. The method, then:
Cytotoxicity in PBMCs (3 days), MT-4 (5 days), HUT-78 (1 day), C8166-(5 days), HEL (3 days) and Daudi cells (3 days) was measured using the MTS/PES method. The duration of the assays is given between brackets.

For another data set, the system named is HSV-2 wild-type. The settings on record: read-out: Median EC50; median over HSV-2 wild-type strains; HEL cells.
Another data set has as its system HIV-2 ROD (R5/X4). To be noted: read-out: EC50 (µM ± SEM), PBMCs, p27 HIV-2 Ag ELISA.
The test system of data set [3] is HSV-1 wild-type RV-175 (clinical isolate). To be noted: HEL cells; HSV-1 RV-175; CPE.
Another data set concerns HSV. To be noted: read-out: anti-HSV activity EC50 range; range over HSV-1 and HSV-2 strains; CPE in HEL cells.
The next data set concerns HIV-1 IIIB^FGMres. (X4). The settings on record: read-out: EC50 (µM ± SEM); MT-4 cells; IIIB resistant to feglymycin (FGM); MTS/PES.
Data set [4] concerns HSV-1 TK^- RV-294 (clinical isolate). To be noted: HEL cells, CPE.
In the next data set the test system is HIV-1 NL4.3 (X4). The settings on record: read-out: EC50 (µM ± SEM), MT-4 cells, MTS/PES method.
Another data set has as its system HIV-1 IIIB. Kind of data set: Time-of-drug-addition study, HIV. Format: cell-based. To be noted: MT-4 cells, 48 µM LabyA1. As for the experimental part: The time-of-drug-addition (TOA) experiments were performed as described. In brief, 1×10^6 MT-4 cells/ml were infected with HIV-1 X4 IIIB at a multiplicity of infection (MOI) of 0.5. The compounds were added at different time points in a range from 0 to 26 h post-infection. After 31 h, HIV-1 replication was detected by p24 HIV-1 Ag ELISA as described above. The reference compounds were added at 100 times their EC50-values, as obtained in the MT-4 cell antiviral assay.

Data set [5] is described as follows: Cytotoxicity assay (flow cytometry). Format: cell-based. To be noted: 3 days, read-out: 50% cytotoxic concentration (CC50). The method, then:
The vaginal epithelial cell lines HEC-1A and VK2 (500 µl; at a density of 1×10^6 cells/ml) were seeded in a 24-well plate and incubated for 3 days with various concentrations of LabyA1 (500 µl). Cell cytotoxicity was determined microscopically and by flow cytometry (FACSCalibur, BD Biosciences, Erembodegem, Belgium).
A general note: Flow cytometry measures light scatter and fluorescence of single cells or particles in a stream.

A further data set addresses T1, CCR5 (Homo sapiens, UniProt P51681).
T1 construct: expressed in transfected cells; host or cells: U87.CD4.CCR5 (human astroglioma U87)
The experiment in a line: Intracellular calcium mobilization (FLIPR), U87.CD4.CCR5 cells. Format: cell-based. The settings on record: 9.6 µM. As for the experimental part: Calcium (Ca^2+) mobilization assays were performed by the use of a fluorometric imaging plate reader (FLIPR) (Molecular Devices, Sunnyvale, CA) as described previously. Briefly, U87.CD4.CCR5 or U87.CD4.CXCR4 cells were digested by trypsin and seeded in gelatine-coated black-wall 96-well microplates at 2×10^4 cells per well. The next day, the cells were loaded with the fluorescent calcium indicator Fluo-3 acetoxymethyl ester (Molecular Probes, Leiden, The Netherlands) at 4 µM for 45 min at 37°C. Cells were washed 3 times in assay buffer (Hanks’ balanced salt solution with 20 mM HEPES buffer and 0.2% bovine serum albumin, pH 7.4) and incubated for 10 min with Laby A1. The intracellular calcium mobilization induced by LD78β in U87.CD4.CCR5 cells or by SDF-1 in U87.CD4.CXCR4 cells was then measured at 37°C by monitoring the fluorescence as a function of time simultaneously in all the wells. In addition, potential intracellular calcium mobilization induced by Laby A1 was also investigated.
(In general: A change in cytosolic calcium serves as a functional read-out for many receptors and channels.)

The subject of a further data set is HSV-1 TK^-. To be noted: read-out: Median EC50; median over HSV-1 TK- strains; HEL cells.
The next data set concerns HIV-1 BaL (R5). The settings on record: read-out: EC50 (µM ± SEM), MDM, p24 Ag ELISA.
A further data set concerns HIV-1 NL4.3. The experiment in a line: Pre-incubation of MT-4 cells with compound, wash, then HIV-1 NL4.3 infection. Format: cell-based. The settings on record: MT-4 cells pre-incubated 2 h at 37°C, washed, infected with HIV-1 NL4.3; 5 days; control 100% CPE.

T1 sequence (P51681 whole entry): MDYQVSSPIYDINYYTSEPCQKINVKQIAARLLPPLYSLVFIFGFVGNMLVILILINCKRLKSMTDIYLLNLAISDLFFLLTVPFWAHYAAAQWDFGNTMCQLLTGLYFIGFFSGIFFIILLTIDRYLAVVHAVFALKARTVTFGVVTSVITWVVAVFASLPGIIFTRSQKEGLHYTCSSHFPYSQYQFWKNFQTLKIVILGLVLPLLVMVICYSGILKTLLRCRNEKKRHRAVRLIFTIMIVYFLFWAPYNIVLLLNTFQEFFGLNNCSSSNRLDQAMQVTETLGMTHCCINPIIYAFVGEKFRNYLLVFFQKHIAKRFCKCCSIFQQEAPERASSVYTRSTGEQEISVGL
Experimental for HIV-1 BaL (R5): Afterwards, the non-adherent cells were gently mixed and removed from the adherent cell layer. The cells were carefully washed and this washing step was repeated after 6 days of incubation at 37°C. The adherent cells were then infected with HIV-1 R5 BaL.
MDM were seeded in a 48-well plate in 1 ml medium. […] Each concentration was tested in triplicate. After an incubation of 30 minutes at 37°C, 1000 pg/well of p24 Ag of HIV-1 R5 BaL was added. Three weeks post-infection, supernatant was collected and viral replication evaluated by p24 HIV-1 Ag ELISA.

`C/C=C1\NC(=O)[C@H](Cc2ccccc2)NC(=O)[C@@H]2CCCN2C(=O)[C@H](C(C)C)NC(=O)[C@H](Cc2c[nH]c3ccccc23)NC(=O)[C@]23CSC[C@H](NC1=O)C(=O)N[C@H](C(=O)O)CSSC[C@H](NC(=O)[C@@H]1CSC[C@]4(C[C@H](N)C(=O)N[C@@H](CC(N)=O)C(=O)N[C@@H](C)C(=O)N4)C(=O)N[C@@H](C(C)C)C(=O)N[C@@H](Cc4c[nH]c5ccccc45)C(=O)N[C@@H](CCC(=O)O)C(=O)N1)C(=O)N[C@@H](C2)C(=O)N[C@@H]([C@@H](C)O)C(=O)NCC(=O)N3` [LabyA1, labyrinthopeptin A1]: the EC50 in data set [1] was 1200 ± 800 nM; in the data set on HSV-2 wild-type, 410 nM; with HIV-2 ROD (R5/X4), 1 ± 0.3 µM; in data set [3] it was 2800 ± 500 nM; with HSV, 290 to 2800 nM; in the data set with HIV-1 IIIB^FGMres. (X4), 1.9 ± 0.1 µM. The EC50 came to 310 nM in [4], 1.7 ± 0.4 µM with HIV-1 NL4.3 (X4), 1900 nM with HSV-1 TK^- and 2.4 ± 0.8 µM in the data set with HIV-1 BaL (R5). In addition, the “growth inhibitory effects on Lactobacillus strains” value with Lactobacillus strains is on record as “no growth inhibitory effects were observed”. For the same molecule, the CC50 in [2] is more than 48000 nM; in data set [5] (HEC-1A (endometrium carcinoma)) it was 34000 nM; in data set [5] (VK2 (vaginal epithelial)), more than 48000 nM. For the same molecule, the time-of-drug-addition profile entry in the data set on HIV-1 IIIB is “prevented HIV infection at an early time point somewhat comparable with AMD3100”. In addition, the “induction of calcium signaling by compound itself” value at CCR5 is reported as “could not induce by itself calcium signaling”. In addition, the “inhibition of LD78β (CCL3L1)-induced intracellular calcium flux” value on CCR5 (10 ng/ml LD78β) was “could also not inhibit the intracellular calcium flux”. In addition, in the data set with HIV-1 NL4.3, the “% CPE after pre-incubation of cells and removal of compound” value came to 96.8±3.2 % CPE.
